8 molecules from PubChem BioAssay AID1259407 (Chemical Carcinogenesis Research Information System (CCRIS), 2018) can be followed below.

Calls of active or inactive are those of the source. No rule for the calls is given here.

The series deals with CCRIS mutagenicity, Ames/micronucleus/aberration tests. The series is described as follows: CCRIS mutagenicity studies.
Where [1] appears, read: Test System: AMES SALMONELLA TYPHIMURIUM, Strain/Indicator: TA100, Metabolic Activation: NONE, Method: PREINCUBATION
The mark [2] stands for this setting: Test System: AMES SALMONELLA TYPHIMURIUM, Strain/Indicator: TA98, Metabolic Activation: NONE, Method: STANDARD PLATE.
The mark [3] stands for this setting: Test System: AMES SALMONELLA TYPHIMURIUM, Strain/Indicator: TA98, Metabolic Activation: RAT, LIVER, S-9, AROCLOR 1254, Method: STANDARD PLATE.
The mark [4] stands for this setting: Test System: AMES SALMONELLA TYPHIMURIUM, Strain/Indicator: TA100, Metabolic Activation: NONE, Method: STANDARD PLATE.
The mark [5] stands for this setting: Test System: AMES SALMONELLA TYPHIMURIUM, Strain/Indicator: TA100, Metabolic Activation: RAT, LIVER, S-9, AROCLOR 1254, Method: STANDARD PLATE.
[6] abbreviates: Test System: AMES SALMONELLA TYPHIMURIUM, Strain/Indicator: TA1535, Metabolic Activation: NONE, Method: STANDARD PLATE.
The mark [7] stands for this setting: Test System: AMES SALMONELLA TYPHIMURIUM, Strain/Indicator: TA1537, Metabolic Activation: NONE, Method: STANDARD PLATE.

On to `CC(=O)Nc1ccc(CC(=O)O)cc1`, for which the mutagenic call was “inactive; negative” (Test System: AMES SALMONELLA TYPHIMURIUM, Strain/Indicator: TA98, Metabolic Activation: NONE); “inactive; negative” (Test System: AMES SALMONELLA TYPHIMURIUM, Strain/Indicator: TA98, Metabolic Activation: RAT, LIVER, S-9, AROCLOR 1254); “inactive; negative” (Test System: AMES SALMONELLA TYPHIMURIUM, Strain/Indicator: TA100, Metabolic Activation: NONE); “inactive; negative” (Test System: AMES SALMONELLA TYPHIMURIUM, Strain/Indicator: TA100, Metabolic Activation: RAT, LIVER, S-9, AROCLOR 1254); “inactive; negative” (Test System: AMES SALMONELLA TYPHIMURIUM, Strain/Indicator: TA1535, Metabolic Activation: NONE); “inactive; negative” (Test System: AMES SALMONELLA TYPHIMURIUM, Strain/Indicator: TA1535, Metabolic Activation: RAT, LIVER, S-9, AROCLOR 1254). Besides, the mutagenic call is, setting by setting: (Test System: AMES SALMONELLA TYPHIMURIUM, Strain/Indicator: TA1537, Metabolic Activation: NONE) “inactive; negative”; (Test System: AMES SALMONELLA TYPHIMURIUM, Strain/Indicator: TA1537, Metabolic Activation: RAT, LIVER, S-9, AROCLOR 1254) “inactive; negative”; (Test System: AMES SALMONELLA TYPHIMURIUM, Strain/Indicator: TA1538, Metabolic Activation: NONE) “inactive; negative”; (Test System: AMES SALMONELLA TYPHIMURIUM, Strain/Indicator: TA1538, Metabolic Activation: RAT, LIVER, S-9, AROCLOR 1254) “inactive; negative”; (Test System: E. COLI, Strain/Indicator: WP2, Metabolic Activation: NONE) “inactive; negative”; (Test System: E. COLI, Strain/Indicator: WP2, Metabolic Activation: RAT, LIVER, S-9, AROCLOR 1254) “inactive; negative”. For the same molecule, the mutagenic call is “inactive; negative” (Test System: E. COLI, Strain/Indicator: WP2 UVRA, Metabolic Activation: NONE) and “inactive; negative” (Test System: E. COLI, Strain/Indicator: WP2 UVRA, Metabolic Activation: RAT, LIVER, S-9, AROCLOR 1254).

Take `O[C@@H]1C=Cc2c(ccc3cc4ccccc4cc23)[C@H]1O`: the mutagenic call (Test System: CHINESE HAMSTER V-79, Strain/Indicator: V-79/OUABAIN, Metabolic Activation: CELL-MEDIATED, Method: STANDARD PLATE) was “active; positive”.

`CNCC(O)c1ccc(O)c(O)c1` (stereo not given): the mutagenic call was “inactive; negative” (Test System: AMES SALMONELLA TYPHIMURIUM, Strain/Indicator: TA102, Metabolic Activation: NONE, Method: STANDARD PLATE); “inactive; negative” (Test System: AMES SALMONELLA TYPHIMURIUM, Strain/Indicator: TA2638, Metabolic Activation: NONE, Method: STANDARD PLATE); “inactive; negative” (Test System: E. COLI, Strain/Indicator: WP2 (PKM101), Metabolic Activation: NONE, Method: STANDARD PLATE); “inactive; negative” (Test System: E. COLI, Strain/Indicator: WP2 UVRA (PKM101), Metabolic Activation: NONE, Method: STANDARD PLATE).

With `N[C@@H](CSCc1ccccc1)C(=O)O`, the mutagenic call (Test System: AMES SALMONELLA TYPHIMURIUM, Strain/Indicator: TA98, Metabolic Activation: NONE, Method: PREINCUBATION) was “inactive; negative”; the mutagenic call (Test System: AMES SALMONELLA TYPHIMURIUM, Strain/Indicator: TA98, Metabolic Activation: RAT, LIVER OR KIDNEY, MICROSOMES, Method: PREINCUBATION) was “inactive; negative”; the mutagenic call under setting [1] is “inactive; negative”; the mutagenic call (Test System: AMES SALMONELLA TYPHIMURIUM, Strain/Indicator: TA100, Metabolic Activation: RAT, LIVER OR KIDNEY, MICROSOMES, Method: PREINCUBATION) is “inactive; negative”; the mutagenic call (Test System: AMES SALMONELLA TYPHIMURIUM, Strain/Indicator: TA102, Metabolic Activation: NONE, Method: PREINCUBATION) was “inactive; negative”; the mutagenic call (Test System: AMES SALMONELLA TYPHIMURIUM, Strain/Indicator: TA102, Metabolic Activation: RAT, LIVER OR KIDNEY, MICROSOMES, Method: PREINCUBATION) is “inactive; negative”. Further, the mutagenic call (Test System: AMES SALMONELLA TYPHIMURIUM, Strain/Indicator: TA2638, Metabolic Activation: NONE, Method: PREINCUBATION) was “inactive; negative” and the mutagenic call (Test System: AMES SALMONELLA TYPHIMURIUM, Strain/Indicator: TA2638, Metabolic Activation: RAT, LIVER OR KIDNEY, MICROSOMES, Method: PREINCUBATION) was “inactive; negative”.

Take `CCOC(=O)C1C(C=C(C)C)C1(C)C` (stereo not given): the mutagenic call was “inactive; negative” under setting [2]; “inactive; negative” under setting [3]; “inactive; negative” under setting [4]; “inactive; negative” under setting [5]; “inactive; negative” under setting [6]; “inactive; negative” (Test System: AMES SALMONELLA TYPHIMURIUM, Strain/Indicator: TA1535, Metabolic Activation: RAT, LIVER, S-9, AROCLOR 1254, Method: STANDARD PLATE). Besides, the mutagenic call runs as follows: under setting [7], “inactive; negative”; (Test System: AMES SALMONELLA TYPHIMURIUM, Strain/Indicator: TA1537, Metabolic Activation: RAT, LIVER, S-9, AROCLOR 1254, Method: STANDARD PLATE) “inactive; negative”; (Test System: E. COLI, Strain/Indicator: WP2, Metabolic Activation: NONE, Method: STANDARD PLATE) “inactive; negative”; (Test System: E. COLI, Strain/Indicator: WP2, Metabolic Activation: RAT, LIVER, S-9, AROCLOR 1254, Method: STANDARD PLATE) “inactive; negative”.

As to `CCC1(c2ccccc2)C(=O)N=C(O)NC1=O` (stereo not given), the mutagenic call is “inactive; negative” (Test System: AMES SALMONELLA TYPHIMURIUM, Strain/Indicator: TA97, Metabolic Activation: NONE, Method: STANDARD PLATE); “inactive; negative” (Test System: AMES SALMONELLA TYPHIMURIUM, Strain/Indicator: TA97, Metabolic Activation: RAT, LIVER, S-9, AROCLOR 1254, Method: STANDARD PLATE); “inactive; negative” under setting [2]; “inactive; negative” under setting [3]; “inactive; negative” under setting [4]; “inactive; negative” under setting [5]. For the same molecule, the mutagenic call (Test System: AMES SALMONELLA TYPHIMURIUM, Strain/Indicator: TA102, Metabolic Activation: RAT, LIVER, S-9, AROCLOR 1254, Method: STANDARD PLATE) is “inactive; negative” and the mutagenic call under setting [6] is “active; positive”.

`O=C(/C=C/c1ccc(Br)cc1)c1ccccc1`: the mutagenic call reads like this: under setting [2], “inactive; negative”; under setting [3], “inactive; negative”; under setting [4], “inactive; negative”; under setting [5], “inactive; negative”.

With `O=NN(CC(=O)O)CC(=O)O`, the mutagenic call under setting [2] was “inactive; negative”; the mutagenic call (Test System: AMES SALMONELLA TYPHIMURIUM, Strain/Indicator: TA98, Metabolic Activation: RAT, LIVER, S-9, Method: STANDARD PLATE) was “inactive; negative”; the mutagenic call under setting [1] was “active; positive”; the mutagenic call under setting [4] is “inactive; negative”; the mutagenic call (Test System: AMES SALMONELLA TYPHIMURIUM, Strain/Indicator: TA100, Metabolic Activation: RAT, LIVER, S-9, Method: STANDARD PLATE) was “inactive; negative”; the mutagenic call under setting [6] was “inactive; negative”. Further, the mutagenic call (Test System: AMES SALMONELLA TYPHIMURIUM, Strain/Indicator: TA1535, Metabolic Activation: RAT, LIVER, S-9, Method: STANDARD PLATE) is “inactive; negative”; the mutagenic call under setting [7] was “inactive; negative”; the mutagenic call (Test System: AMES SALMONELLA TYPHIMURIUM, Strain/Indicator: TA1537, Metabolic Activation: RAT, LIVER, S-9, Method: STANDARD PLATE) was “inactive; negative”; the mutagenic call (Test System: AMES SALMONELLA TYPHIMURIUM, Strain/Indicator: TA1538, Metabolic Activation: NONE, Method: STANDARD PLATE) was “inactive; negative”; the mutagenic call (Test System: AMES SALMONELLA TYPHIMURIUM, Strain/Indicator: TA1538, Metabolic Activation: RAT, LIVER, S-9, Method: STANDARD PLATE) is “inactive; negative”.
